According to patent publication US6426355B1, “Heterocyclic carboxamide-containing thiourea inhibitors of herpes viruses containing phenylenediamine group” (American Home Products, priority 1998, dated 2002):
≈ marks a conversion by molar mass, not a printed value.

Legend:
[1] = system: HCMV recombinant mutant virus (RV145); assay: HCMV microtiter plate assay (beta-glucuronidase reporter); type: cell-based, Human Cytomegalovirus; settings: for IC50: Human betaherpesvirus 5, Fibroblast, read-out: IC50 (ug/ml) HCMV; for IC50 (ug/ml) HCMV: HCMV in human foreskin fibroblasts
From the text: Ninety-six well plate cultures of human foreskin fibroblasts are infected in the presence of inhibitor compound with a HCMV recombinant mutant virus whose genome contains the prokaryotic beta-glucuronidase gene (Jefferson, R. A., S. M. Burgess, and D. Hirsh. 1986. Beta-glucuronidase from Escherichia coli as a gene fusion marker. Proc. Natl. Acad. Sci. USA 83:8447-8451) whose expression is controlled by a viral promoter. An example of such a virus is RV145 (Jones, T. R., V. P. Muzithras, and Y. Gluzman. 1991. Replacement mutagenesis of the human cytomegalovirus genome: US10 and US11 gene products are nonessential. J. Virol. 65:5860-5872). Since it is under the control of a viral promoter, beta-glucuronidase expression is an indirect indicator of growth and replication of HCMV in this assay. At 96 hours post-infection, the infected cell lysates are prepared (using 50 mM sodium phosphate [pH7.0] containing 0.1% Triton X-100 and 0.1% sarkosyl) and assayed for beta-glucuronidase activity using a substrate for the enzyme which when cleaved yields either a product which can be measured colorimetrically in a spectrophotometer or fluorescently in a microfluorimeter. Examples of such substrates are p-nitrophenyl-beta-D-glucuronide and methylumbelliferylglucuronide, respectively. The presence of an antiviral compound is indicated by the reduced expression of the HCMV genome resident beta-glucuronidase gene, compared to the absence of inhibitor. […] Data from this assay generated using varying amounts of inhibitor compound is also used to estimate the IC50 of an inhibitor compound.

[2] = system: HSV-1; assay: HSV Antiviral (ELISA) assay; type: cell-based; settings: for IC50 (ug/ml) HSV: HSV-1 in Vero cells
Method: Vero cells (ATCC #CCL-81) are plated on 96-well tissue culture plates at 3.5×10^4 cells per 100 μl tissue culture DMEM (Dulbecco's modified Eagle media) supplemented with 2% fetal bovine serum (FBS) in each well. After overnight incubation @ 37° C. (in 5% CO2) and 30 minutes prior to infection with HSV-1 (multiplicity of infection equal to 0.006), cells are either untreated, or treated with test compound (multiple concentrations) or reference standard drug control. After approximately 24 hours post-infection incubation @ 37° C. (in 5% CO2), cells are fixed for ELISA assay. The primary antibody is murine anti-HSV glycoprotein D monoclonal primary antibody and the secondary antibody is goat anti-mouse IgG linked to β-galactosidase. Thus the extent of viral replication is determined by assessing β-galactosidase activity by quantifying the generation of the 4-methyl umbelliferone fluorescent cleavage product after addition of the methyl umbelliferyl-β-D-galactoside (Sigma #M1633) substrate on a microfluorimeter (365 nm for excitation and 450 nm for emission). Antiviral activity (IC50) of the test compound is determined by comparing the flourescence obtained in absence of compound to that obtained in the presence of compound.

[3] = system: VZV strain Ellen; assay: VZV Antiviral (ELISA) assay; type: cell-based; settings: for IC50 (ug/ml) VZV: VZV strain Ellen in HFF cells; for inhibition at 10 µg/mL: Human alphaherpesvirus 3, read-out: % inhibition 10 ug/ml VZV, at 10 ug/ml, VZV strain Ellen in HFF cells
Method: For the generation of stock VZV to be used in the assay, VZV strain Ellen (ATCC #VR-1367) is used to infect human foreskin fibroblast (HFF) cells at low multiplicity (less than 0.1) and incubated overnight at 37° C. in 5% CO2. After the overnight incubation, the mixture of uninfected and VZV-infected HFF infected cells are then harvested and added to each well of 96-well plates (3.5×10^4 cells in 100 μl DMEM supplemented with 2% FBS) which contain test compound or the reference standard drug control (in 100 μl DMEM supplemented with 2% FBS per well). These cells are incubated for three days at 37° C. in 5% CO2, then fixed for ELISA assay. The primary antibody is murine anti-VZV glycoprotein II monoclonal antibody (Applied Biosystems, Inc. #13-145-100) and the secondary antibody is goat anti-mouse IgG linked to β-galactosidase. Thus the extent of viral replication is determined by assessing β-galactosidase activity by quantifying the generation of the 4-methyl umbelliferone fluorescent cleavage product after addition of the methyl umbelliferyl-β-D-galactoside (Sigma #M1633) substrate on a microfluorimeter (365 nm for excitation and 450 nm for emission). Antiviral activity (IC50) of the test compound is determined by comparing the flourescence obtained in absence of compound to that obtained in the presence of compound.

Row | Structure (SMILES) | IC50 (ug/ml) HCMV [1] | IC50 (ug/ml) HSV [2] | IC50 (ug/ml) VZV [3] | other results
1 | O=C(NCc1ccc(Cl)c(Cl)c1)Nc1ccc(NC(=O)c2csnn2)cc1 [Example 90, [1,2,3]Thiadiazole-4-carboxylic acid {4-[3-(3,4-dichloro-benzyl)-ureido]-phenyl}-amide] | – | – | – | IC50 [1]: 0.07 µg/mL (≈ 166 nM); IC50 ([2]; Human alphaherpesvirus 1, HSV-1 in Vero cells, read-out: IC50 (ug/ml) HSV): > 10 µg/mL
2 | COc1cc(OC)c(NC(=S)Nc2ccc(NC(=O)c3cnccn3)cc2)cc1Cl [Example 144] | 10 µg/mL (≈ 22500 nM) | 7 µg/mL (≈ 15800 nM) | – | –
3 | O=C(Nc1ccc(NC(=S)NCc2ccc3c(c2)OCO3)cc1)c1ccco1 [Example 546] | – | 1.7 µg/mL (≈ 4300 nM) | 7 µg/mL (≈ 17700 nM) | –
4 | O=C(Nc1ccc(NC(=S)NCCCCc2ccccc2)cc1)c1csnn1 [Example 648] | 0.01 µg/mL (≈ 24.3 nM) | >10 µg/mL | – | –
5 | COc1ccccc1CNC(=S)Nc1ccc(NC(=O)c2csnn2)cc1 [Example 650] | 0.05 µg/mL (≈ 125 nM) | >10 µg/mL | – | –
6 | COc1ccccc1CCNC(=S)Nc1ccc(NC(=O)c2csnn2)cc1 [Example 651] | 0.03 µg/mL (≈ 72.5 nM) | >10 µg/mL | – | –
7 | COc1ccc(CCNC(=S)Nc2ccc(NC(=O)c3csnn3)cc2)cc1 [Example 652] | 0.03 µg/mL (≈ 72.5 nM) | >10 µg/mL | – | –
8 | CN(C)CCCc1cc(NC(=S)Nc2ccc(NC(=O)c3csnn3)cc2)cc(C(F)(F)F)c1 [Example 654] | 0.07 µg/mL (≈ 138 nM) | >10 µg/mL | – | –
9 | O=C(Nc1ccc(NC(=S)NCCSc2ccccc2)cc1)c1csnn1 [Example 655] | 0.01 µg/mL (≈ 24.1 nM) | >10 µg/mL | – | –
10 | O=C(Nc1ccc(NC(=S)NCCSc2ccccc2)cc1)c1ccco1 [Example 657] | 0.04 µg/mL (≈ 101 nM) | 6 µg/mL (≈ 15100 nM) | – | –
11 | O=C(Nc1ccc(NC(=S)NCc2cccc(I)c2)cc1)c1ccco1 [Example 662] | 0.03 µg/mL (≈ 62.8 nM) | >10 µg/mL | – | –
12 | O=C(Nc1ccc(NC(=S)NC(CO)c2ccccc2)cc1)c1csnn1 (stereo not drawn) [Example 726] | – | >10 µg/mL | – | –
13 | CC(C)(NC(=S)Nc1ccc(NC(=O)c2csnn2)cc1)c1ccccc1 [Example 728] | – | 9 µg/mL (≈ 22600 nM) | – | –
14 | CC(NC(=S)Nc1ccc(NC(=O)c2cscn2)cc1)c1ccc(F)cc1Cl (stereo not drawn) [Example 839] | 0.004 µg/mL (≈ 9.2 nM) | – | >7.5 µg/mL | –
15 | CC(NC(=S)Nc1ccc(NC(=O)c2cscn2)cc1)c1ccc(F)c(F)c1 (stereo not drawn) [Example 840] | 0.0015 µg/mL (≈ 3.58 nM) | – | 0.14 µg/mL (≈ 335 nM) | –
16 | CC(NC(=S)Nc1ccc(NC(=O)c2cscn2)cc1)c1ccc(Br)cc1F (stereo not drawn) [Example 841] | 0.0011 µg/mL (≈ 2.29 nM) | – | 0.77 µg/mL (≈ 1610 nM) | –
17 | CC(NC(=S)Nc1ccc(NC(=O)c2cscn2)cc1)c1cccc(F)c1 (stereo not drawn) [Example 842] | 0.02 µg/mL (≈ 49.9 nM) | – | 1.55 µg/mL (≈ 3870 nM) | –
18 | CC(NC(=S)Nc1ccc(NC(=O)c2cscn2)cc1)c1ccccc1Br (stereo not drawn) [Example 843] | 0.0031 µg/mL (≈ 6.72 nM) | – | >7.5 µg/mL | –
19 | CC(NC(=S)Nc1ccc(NC(=O)c2cscn2)cc1)c1cccc(Br)c1 (stereo not drawn) [Example 844] | 0.0008 µg/mL (≈ 1.73 nM) | – | 1.03 µg/mL (≈ 2230 nM) | –
20 | CC(NC(=S)Nc1ccc(NC(=O)c2cscn2)cc1)c1ccccc1C(F)(F)F (stereo not drawn) [Example 845] | 0.0060 µg/mL (≈ 13.3 nM) | – | >7.5 µg/mL | –

Row | Structure (SMILES) | IC50 (ug/ml) HCMV [1] | IC50 (ug/ml) HSV [2] | IC50 (ug/ml) VZV [3] | other results
21 | CC(NC(=S)Nc1ccc(NC(=O)c2cscn2)cc1)c1ccc(F)cc1F (stereo not drawn) [Example 846] | 0.0130 µg/mL (≈ 31.1 nM) | – | 1.04 µg/mL (≈ 2490 nM) | –
22 | C[C@@H](NC(=S)Nc1ccc(NC(=O)c2cscn2)cc1)c1cc(C(F)(F)F)cc(C(F)(F)F)c1 [Example 847] | 0.0008 µg/mL (≈ 1.54 nM) | – | >7.5 µg/mL | –
23 | CC(NC(=S)Nc1ccc(NC(=O)c2cscn2)cc1)c1ccc(Cl)c(Cl)c1 (stereo not drawn) [Example 848] | 0.002 µg/mL (≈ 4.43 nM) | – | 0.19 µg/mL (≈ 421 nM) | –
24 | CC(NC(=S)Nc1ccc(NC(=O)c2cscn2)cc1)c1ccc(C(F)(F)F)c(F)c1 (stereo not drawn) [Example 849] | 0.002 µg/mL (≈ 4.27 nM) | – | 1.82 µg/mL (≈ 3880 nM) | –
25 | CC(NC(=S)Nc1ccc(NC(=O)c2cscn2)cc1)c1ccc(Cl)c(C(F)(F)F)c1 (stereo not drawn) [Example 850] | 0.0008 µg/mL (≈ 1.65 nM) | – | 2.33 µg/mL (≈ 4800 nM) | –
26 | CC(NC(=S)Nc1ccc(NC(=O)c2cscn2)cc1)c1ccc(Cl)cc1F (stereo not drawn) [Example 851] | 0.017 µg/mL (≈ 39.1 nM) | – | 1.43 µg/mL (≈ 3290 nM) | –
27 | CC(NC(=S)Nc1ccc(NC(=O)c2cscn2)cc1)c1ccc(F)cc1C(F)(F)F (stereo not drawn) [Example 852] | 0.005 µg/mL (≈ 10.7 nM) | – | >7.5 µg/mL | –
28 | CC(NC(=S)Nc1ccc(NC(=O)c2cscn2)cc1)c1ccc(Cl)c(F)c1 (stereo not drawn) [Example 853] | 0.004 µg/mL (≈ 9.2 nM) | – | 0.62 µg/mL (≈ 1430 nM) | –
29 | CCC(NC(=S)Nc1ccc(NC(=O)c2csnn2)cc1)c1cc(C(F)(F)F)cc(C(F)(F)F)c1 (stereo not drawn) [Example 857] | 0.0006 µg/mL (≈ 1.12 nM) | – | >7.5 µg/mL | –
30 | CCCC(NC(=S)Nc1ccc(NC(=O)c2csnn2)cc1)c1cc(C(F)(F)F)cc(C(F)(F)F)c1 (stereo not drawn) [Example 858] | 0.0007 µg/mL (≈ 1.28 nM) | – | >7.5 µg/mL | –
31 | CCCCC(NC(=S)Nc1ccc(NC(=O)c2csnn2)cc1)c1cc(C(F)(F)F)cc(C(F)(F)F)c1 (stereo not drawn) [Example 859] | 0.00001 µg/mL (≈ 0.0178 nM) | – | 0.5 µg/mL (≈ 890 nM) | –
32 | O=C(Nc1ccc(NC(=S)NC(c2ccccc2)c2cc(C(F)(F)F)cc(C(F)(F)F)c2)cc1)c1csnn1 (stereo not drawn) [Example 860] | 0.001 µg/mL (≈ 1.72 nM) | – | >7.5 µg/mL | –
33 | CC(C)(NC(=S)Nc1ccc(NC(=O)c2csnn2)cc1)c1cc(C(F)(F)F)cc(C(F)(F)F)c1 [Example 861] | 0.002 µg/mL (≈ 3.75 nM) | – | >7.5 µg/mL | –
34 | O=C(Nc1ccc(NC(=S)NCc2cc(C(F)(F)F)cc(C(F)(F)F)c2)cc1)c1c[nH]cn1 [Example 862] | 0.1 µg/mL (≈ 205 nM) | – | >7.5 µg/mL | –
35 | CC(NC(=S)Nc1ccc(NC(=O)c2c[nH]cn2)cc1)c1ccc(F)cc1 (stereo not drawn) [Example 863] | 2.0 µg/mL (≈ 5220 nM) | – | >7.5 µg/mL | –
36 | Cn1cnc(C(=O)Nc2ccc(NC(=S)NCc3cc(C(F)(F)F)cc(C(F)(F)F)c3)cc2)c1 [Example 864] | 0.5 µg/mL (≈ 997 nM) | – | >7.5 µg/mL | –
37 | CCC(NC(=S)Nc1ccc(NC(=O)c2cscn2)cc1)c1cc(C(F)(F)F)cc(C(F)(F)F)c1 (stereo not drawn) [Example 865] | 0.0001 µg/mL (≈ 0.188 nM) | – | >7.5 µg/mL | –
38 | CC(=O)Nc1ccc(NC(=S)Nc2ccc(C(C)O)c(Cl)c2)cc1 (stereo not drawn) [Example 913, N-(4-{3-[3-Chloro-4-(1-hydroxy-ethyl)-phenyl]-thioureido}-phenyl)-acetamide] | – | – | – | inhibition at 10 µg/mL [3]: 15%; IC50 [1]: 0.056 µg/mL (≈ 154 nM)
39 | CC(=O)Nc1ccc(NC(=S)Nc2ccc(-c3ccno3)c(Cl)c2)cc1 [Example 974, N-{4-[3-(3-Chloro-4-isoxazol-5-yl-phenyl)-thioureido]-phenyl} -acetamide] | – | – | – | inhibition at 10 µg/mL [3]: 14%; IC50 [1]: 0.011 µg/mL (≈ 28.4 nM)
40 | CC(=O)Nc1ccc(NC(=S)Nc2cc(Cl)cc(Cl)c2)cc1 [Example 983, N-{4-[3-(3,5-Dichloro-phenyl)-thioureido]-phenyl}-acetamide] | – | – | – | inhibition at 10 µg/mL [3]: 52%; IC50 [1]: 0.12 µg/mL (≈ 339 nM)
